“Also recorded” adds a separate entry of the source.
Experiments:
TNF-α mRNA = assay: Taqman real-time PCR of TNF-α gene response to LTIH, lateral basal forebrain; type: in vivo, mice
Source text: A detailed description of the long-term intermittent hypoxia (LTIH) protocol was recently published. An automated nitrogen/oxygen delivery profile system (Oxycycler model A84XOV; Biospherix, Redfield, N.Y.) produced brief reductions in housing chamber ambient oxygen levels from 21% to 10% for 5 sec every 90 sec, resulting in arterial oxyhemoglobin saturation fluctuations between 95-98% and 83-86%. Sham LTIH, with ambient FIO2 fluctuations from 21% to 19% every 90 sec, held arterial oxyhemoglobin values constant between 96-98%. Both conditions were produced for 10 hr of the lights-on period for a total of 8 wks. Humidity, ambient CO2 and environmental temperature were held constant. To determine if LTIH results in lasting increases in NADPH oxidase and microglial gene responses, real-time Taqman PCR was performed on laser-captured microdissections or macropunches of selected brain regions in mice exposed to sham LTIH or LTIH, two weeks into recovery to parallel sleep studies, using our methods, as previously published (12, 25). Real-time measurement of a NADPH oxidase subunit (p67^phox). To accomplish this, two weeks following conditions of either sham LTIH or LTIH, mice were perfused with PBS; brains were immediately frozen and sectioned (10 μm) for laser-capture microdissections of the following wake-active or hypoxia sensitive regions: frontal cortex (layer V), nucleus basalis […]/substantia inominata/horizontal diagonal band, hippocampus CA1, striatum, lateral hypothalamus, dorsal raphe nucleus, and locus coeruleus, or the following sleep-active adjacent brain regions: median septal diagonal band, medial preoptic area, and ventrolateral preoptic area, collecting 100 captures (40 μm diameter) per region in each mouse (n=6 mice/condition). RNA was purified and cDNA created for primer sets for primer/probe sets in Table 1, for Taqman real time PCR (SDS-7900HT, ABI). […] A second series of mice used for LTIH gene responses were gp91^phox-/- and +/+ mice exposed to either sham LTIH or LTIH for proinflammatory responses. […]

WT mice exposed to LTIH = assay: Sleep/wake recordings and murine multiple sleep latency test after long-term intermittent hypoxia (LTIH); type: in vivo; details: for sleep latency: vs LTIH DMSO vehicle-treated mice
Source text: Ten-week old male C57BL/6J (B6) mice, gp91^phox−/− mice (B6.129S6-Cybb^tmldin) backcrossed 12 generations to C57BL/6J 000664 and gp91^phox+/+ (WT) backcrossed substrain C57BL/6J 000664 mice (Jackson Laboratory, Bar Harbor, Me.) were studied. Methods and study protocols were approved in full by the Institutional Animal Care and Use Committee of the University of Pennsylvania, conforming with the revised NIH Office of Laboratory Animal Welfare Policy. Food and water were provided ad libitum. Mice were confirmed pathogen free at the time of studies.
(§1) A detailed description of the long-term intermittent hypoxia (LTIH) protocol was recently published. An automated nitrogen/oxygen delivery profile system (Oxycycler model A84XOV; Biospherix, Redfield, N.Y.) produced brief reductions in housing chamber ambient oxygen levels from 21% to 10% for 5 sec every 90 sec, resulting in arterial oxyhemoglobin saturation fluctuations between 95-98% and 83-86%. Sham LTIH, with ambient FIO2 fluctuations from 21% to 19% every 90 sec, held arterial oxyhemoglobin values constant between 96-98%. Both conditions were produced for 10 hr of the lights-on period for a total of 8 wks. Humidity, ambient CO2 and environmental temperature were held constant.
To determine if NADPH oxidase inhibition would also prevent LTIH gene responses, a third series of mice examined for gene responses were WT mice treated systemically throughout LTIH or sham LTIH with 3 mg/kg/day apocynin (Sigma-Aldrich) in DMSO, DMSO or PBS delivered subcutaneously (n=10/group) by way of micro-osmotic pump (1002, Durect, Cupertino, Calif.).
After 8 wks of LTIH or sham LTIH exposures, mice were returned to normoxic conditions for 1 wk. Surgical implantation of electrodes and electrophysiological recordings followed using previously described electrode implantation methods (32). Following 3 d post-operative recovery, mice were connected to recording cables in individual cages, and 4 d later sleep recordings were initiated (beginning 2 wk into recovery from LTIH). Baseline sleep was recorded for 5 days. On recording day 6, a baseline murine multiple sleep latency test (MMSLT) was performed (4 nap opportunities between 2 p.m. and 4 p.m.) to measure baseline sleep propensity (33). On recording day 7, sleep deprivation was performed for 6 hours of the light period (8 a.m. to 2 p.m.), followed by a second MSLT and then recovery sleep was recorded for 12 h. The behavioral state acquisition and analysis program used for these studies was ACQ 3.4 (34), with modifications and behavioral state parameters as previously described (7, 9, 32). Primary variables were total sleep time/24 hr, total NREM sleep time/24 hr and REM sleep time/24 hr, and average sleep latency, before and after short-term sleep loss.
To further investigate the role of NADPH oxidase in the LTIH-induced hypersomnolence and sleepiness, a series of WT mice were implanted with osmotic pumps to systemically deliver either a selective NADPH oxidase inhibitor, apocynin at 3 mg/kg/day, vehicle (dimethylsulfoxide, DMSO) or buffered saline throughout LTIH exposure for 8 wks. Pumps were removed and mice were implanted for sleep recordings as described above for studies in gp91^phox null mice. Apocynin therapy prevented both LTIH reduced wake times and shortened sleep latency.

iNOS = iNOS activity in lateral basal forebrain homogenates ([14C] L-arginine to L-citrulline conversion); type: in vivo, mice; details: for LTIH increase in iNOS activity: apocynin throughout LTIH
Protocol: FIG. 5. NADPH oxidase inhibition confers resistance to the long-term intermittent hypoxia (LTIH) proinflammatory response. Proinflammatory gene expression was measured in micropunches in the lateral basal forebrains in gp91^phox wild type controls (gp91^phox WT, n=10) and gp91^phox null mice (gp91^phox null, n=10) for A, TNF-a; B, COX-2 and C, iNOS mRNA copies/2 µg total RNA. D. Total NOS activity (left columns), measured as L-arginine conversion of [^14C] L-arginine to L-citrulline and iNOS activity (right columns) was measured using […] S-Ethyl-N-[4-trifluoromethyl)phenyl]isothiourea (ETPI) added to homogenates (12). […] A detailed description of the long-term intermittent hypoxia (LTIH) protocol was recently published. An automated nitrogen/oxygen delivery profile system (Oxycycler model A84XOV; Biospherix, Redfield, N.Y.) produced brief reductions in housing chamber ambient oxygen levels from 21% to 10% for 5 sec every 90 sec, resulting in arterial oxyhemoglobin saturation fluctuations between 95-98% and 83-86%. Sham LTIH, with ambient FIO2 fluctuations from 21% to 19% every 90 sec, held arterial oxyhemoglobin values constant between 96-98%. Both conditions were produced for 10 hr of the lights-on period for a total of 8 wks. Humidity, ambient CO2 and environmental temperature were held constant. To determine if NADPH oxidase inhibition would also prevent LTIH gene responses, a third series of mice examined for gene responses were WT mice treated systemically throughout LTIH or sham LTIH with 3 mg/kg/day apocynin (Sigma-Aldrich) in DMSO, DMSO or PBS delivered subcutaneously (n=10/group) by way of micro-osmotic pump (1002, Durect, Cupertino, Calif.). […] Lateral basal forebrain iNOS activity was compared in mice treated with or without apocynin throughout LTIH (FIG. 5D). Apocynin therapy, relative to saline therapy had no effect on baseline (sham LTIH) iNOS activity. […] Thus, apocynin therapy throughout LTIH prevented the expected increase in iNOS activity.

iNOS mRNA = assay: Taqman real-time PCR of iNOS gene response to LTIH, lateral basal forebrain; type: in vivo, mice; details: apocynin throughout LTIH
Source text: as §1, with “constant. To determine if LTIH results in lasting increases in NADPH oxidase and microglial gene responses, real-time Taqman PCR was performed on laser-captured microdissections or macropunches of selected brain regions in mice exposed to sham LTIH or LTIH, two weeks into recovery to parallel sleep studies, using our methods, as previously published (12, 25). Real-time measurement of a NADPH oxidase subunit (p67^phox). […]” for “constant.”

COX-2 mRNA = assay: Taqman real-time PCR of COX-2 gene response to LTIH, lateral basal forebrain; type: in vivo, mice; details: apocynin in DMSO vehicle throughout LTIH
Source text: as §1, with “constant. To determine if LTIH results in lasting increases in NADPH oxidase and microglial gene responses, real-time Taqman PCR was performed on laser-captured microdissections or macropunches of selected brain regions in mice exposed to sham LTIH or LTIH, two weeks into recovery to parallel sleep studies, using our methods, as previously published (12, 25). Real-time measurement of a NADPH oxidase subunit (p67^phox). […]” for “constant.”

[1] = apocynin 3 mg/kg/day throughout LTIH

COc1cc(C(C)=O)ccc1O [apocynin, 4-hydroxy-3′-methoxy-acetophenon]
LTIH increase in TNF-α gene expression (vs sham LTIH) (TNF-α mRNA; apocynin throughout LTIH): completely prevented the increases in TNF-α gene expression | TNF-α response as % of the saline LTIH response (TNF-α mRNA; apocynin throughout LTIH): 7% | LTIH TNF-α response, Apo vs. DMSO, % lower (TNF-α mRNA; apocynin vs DMSO vehicle during LTIH): 73% | NREMS time (WT mice exposed to LTIH; apocynin 3 mg/kg/day by osmotic pump throughout 8 wks LTIH, relative to saline and DMSO vehicle): reduced NREMS time | wake time/24 hr (WT mice exposed to LTIH; apocynin 3 mg/kg/day by osmotic pump throughout 8 wks LTIH, relative to saline and DMSO vehicle, 2 wk into recovery): increased wake times; also recorded: prevented LTIH-induced impaired wakefulness and hypersomnolence | sleep latency vs WT mice without intervention or sham LTIH (WT mice exposed to LTIH; [1]): not significantly different | sleep latency (WT mice exposed to LTIH; [1]): significantly higher than LTIH DMSO vehicle-treated mice | sleep latency (WT mice exposed to LTIH; apocynin 3 mg/kg/day throughout LTIH, listed as Apocynin): prevented LTIH reduced sleep latency | reduction in iNOS activity, apocynin treated vs. untreated mice (iNOS; LTIH): 60% | LTIH increase in iNOS activity (iNOS): prevented the LTIH increase in iNOS activity | LTIH increase in iNOS activity (iNOS; listed as Apocynin): prevents the anticipated LTIH increase in iNOS activity | baseline (sham LTIH) iNOS activity, relative to saline therapy (iNOS; sham LTIH): no effect | reduction in iNOS mRNA (iNOS mRNA): 94% | COX-2 gene expression, reduction relative to sham LTIH (COX-2 mRNA): 65% | LTIH COX-2 response (COX-2 mRNA): completely blocked the LTIH COX-2 response

— US8569374B2, “NADPH oxidase inhibition pharmacotherapies for obstructive sleep apnea syndrome and its associated morbidities” (The Trustees of the University of Pennsylvania, priority 2004, dated 2013)
